The record followed here is US20090171105A1 (priority 2006, published 2009).

Test [1] has as its system lung carcinoma. Description: antitumor activity on experimental tumor strains. In kind it is in vivo. The note with it: intraperitoneal and intratumoral introduction, MTD.
Test [2] has as its system Ehrlich's solid tumor. Put plainly: antitumor activity on experimental tumor strains. In kind it is in vivo. The note with it: intraperitoneal and intratumoral introduction, MTD.
Test [3] has as its system mamma adenocarcinoma Ca-755. Description: antitumor activity on experimental tumor strains. In kind it is in vivo. The note with it: intraperitoneal and intratumoral introduction, MTD.
The subject of test [4] is sarcoma 37. Description: antitumor activity on experimental tumor strains. The note with it: intraperitoneal and intratumoral introduction, MTD. In kind it is in vivo.
The subject of test [5] is lymphocytic leukemia P-388. Description: antitumor activity on experimental tumor strains. In kind it is in vivo. The note with it: intraperitoneal and intratumoral introduction, MTD.
In test [6] the test system is lymphoid leukemia L-1210. Put plainly: antitumor activity on experimental tumor strains. The note with it: intraperitoneal and intratumoral introduction, MTD. In kind it is in vivo.
In test [7] the test system is sarcoma M-I. Put plainly: antitumor activity on experimental tumor strains. The note with it: intraperitoneal and intratumoral introduction, MTD. In kind it is in vivo.
Test [8] concerns Walker carcinosarcoma. Put plainly: antitumor activity on experimental tumor strains. In kind it is in vivo. The note with it: intraperitoneal and intratumoral introduction, MTD.
For test [9], the system named is alveolar mucous cancer of liver PC-1. Description: antitumor activity on experimental tumor strains. In kind it is in vivo. The note with it: alveolar mucous cancer of liver PC-1 of rats; intraperitoneal and intratumoral introduction, MTD.
In test [10] the test system is interweave tumors, resistant to prospidine, rubomicine and sarcolyzine. Description: efficiency on drug-resistant interweave tumors. In kind it is in vivo.
For test [11], the system named is connective tissue. Put plainly: oxidation-reduction processes and metabolism in connective tissue.
Test [12] has as its system T-cellular part of immunity. Description: immunomodulating activity.
Test [13] has as its target (Homo sapiens, UniProt P49354+P49356). Put plainly: inhibition of RAS-oncoprotein farnesylation. In kind it is biochemical.
In test [14] the test system is RAS-genes. Description: expression of RAS-genes. In kind it is cell-based.
Test [15] concerns tumor cells. Put plainly: ATP content and apoptosis of tumor cells. In kind it is cell-based.

Sequence of (Homo sapiens, UniProt P49354+P49356) (P49356 whole entry, one chain of several): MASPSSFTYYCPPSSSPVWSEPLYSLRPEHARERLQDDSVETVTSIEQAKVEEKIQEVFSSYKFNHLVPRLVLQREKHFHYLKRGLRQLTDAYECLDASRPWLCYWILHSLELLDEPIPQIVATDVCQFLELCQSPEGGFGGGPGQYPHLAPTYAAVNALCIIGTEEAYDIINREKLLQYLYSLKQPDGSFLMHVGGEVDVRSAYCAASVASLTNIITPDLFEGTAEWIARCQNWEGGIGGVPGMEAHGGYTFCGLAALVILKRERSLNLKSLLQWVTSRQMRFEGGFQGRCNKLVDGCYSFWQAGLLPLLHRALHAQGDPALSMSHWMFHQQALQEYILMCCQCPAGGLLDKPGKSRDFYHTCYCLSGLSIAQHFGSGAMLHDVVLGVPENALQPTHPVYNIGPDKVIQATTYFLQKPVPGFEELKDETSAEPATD

“1(10)β-epoxy-13-dimethylamino-5,7α,6,11β(H)-guaia-3(4)-en-6,12-olide hydrochloride [Arglabin]”: the “sensitivity of tumor strain” value in test [1], in test [2], in [3], in test [4], in test [5] and in [6] was “sensitive” throughout. The “sensitivity of tumor strain” value in test [7], in [8] and in test [9] was “sensitive” throughout. Further, the “efficiency in relation to resistant interweave tumors” value in test [10] is “shows efficiency”. Also, the “oxidation-reduction processes and metabolism in a connective tissue” value in [11] is “has ability to optimize oxidation-reduction processes and a metabolism in a connective tissue”. Besides, the “correction of immunodepressive effect of cytostatic” value in test [12] is “has a property to correct immunodepressive effect of cytostatic cells”. For the same substance, the immunomodulating activity result in [12] (depends on dose) was “shows primary influence on the T-cellular part of immunity”. In addition, the “inhibition of RAS-oncoproteins pharnesilis” value in test [13] is reported as “competitive inhibitor”. Further, the “expression of RAS-genes” value in [14] is “reduces”. The ATP content result in [15] was “reduces”. In addition, in test [15], the tumor cells apoptosis result is listed as “invokes tumor cells apoptosis”.
